From patent publication US6458781B1, “Substituted diarylalkyl amides as calcium channel antagonists” (priority 1998, dated 2002)
Structures can show the parent of a compound that is named as a salt.

Assays:
[1] = tested on: acetic acid-induced writhing in Swiss-Webster mice; test: Anti-writhing test in mice (AW); assay type: in vivo; settings: 10 mg/kg
Description: Anti-Writhing Test in Mice (AW) Test Protocol
The purpose of this test is to evaluate drugs for analgesic-like activity. The AW test determines the effect of drugs on the response to a presumed painful stimulus in mice and is used as a preliminary in vivo procedure for the identification of potential analgesic agents.
Known analgesics with low, moderate, or high efficacy in man allow mice to tolerate intra-peritoneal administration of dilute acetic acid as evidenced by lesser incidence of writhing movements. The AW test measures the nociceptive response to acetic acid in mice and provides an objective, reliable, and quantitative estimate of efficacy and potency of potential analgesic compounds. This test serves as a preclinical predictor of analgesic activity.
Subjects are male Swiss-Webster mice (25-35 g).
Compounds are dissolved or suspended in physiological saline containing 2% Emulphor. Suspensions are subjected to ultrasonication for 3 minutes. Drug doses are expressed as the active moiety and are normally administered to mice (10, 30, and 100 mg/kg IP, SC, PO, or IM) in a volume of 10 mL/kg, 1 hour prior to testing; ICV doses (in μg/kg) are administered in a volume of 0.5 mL/kg, 5 minutes prior to testing. Animals dosed PO are fasted for 16 hours prior to dosing. Groups of eight mice are tested with each dose or the vehicle solution (control group).
Mice are treated with a dilute solution of acetic acid (0.6%, 10 mL/kg IP) which elicits writhing. In four successive trials, one pair of mice from each treatment group is placed in one of four adjacent clear plexiglas chambers (4 in×4 in×4 in). This allows the simultaneous observation of four pairs of mice representing all treatments and controls throughout the test. Writhing movements (abdominal contractions, stretching of the torso and hind legs, and concave arching of the back) are counted for 5 minutes commencing 7 minutes after acetic acid administration.
Drug effects on acetic acid-induced writhing are expressed as percent suppression of writhing relative to the vehicle-treated control group run in parallel with treated animals. The writhing tallies from pairs of animals are summed for each treatment and are divided by the summed writhing in the control group. The ED50s for suppression of writhing are determined by nonlinear regression analysis.

[2] = target: T1, N-type calcium channels in IMR32 human neuroblastoma cells (Homo sapiens, UniProt Q00975); test: FLPIMR assay (FLIPR, IMR32 cells); assay type: cell-based; settings: nitrendipine present, read-out: FLP IMR IC50
T1 construct: expressing neuronal N-type calcium channels upon differentiation, was used for this assay; host or cells: IMR32 human neuroblastoma cells differentiated with dibutyryl cAMP and 5-bromo-2-deoxyuridine
Experimental: In Vitro Protocol: FLPIMR Assays
Calcium flux through voltage-sensitive calcium channels was assessed by time-resolved monitoring of the fluorescence of pre-loaded intracellular calcium-sensitive dyes using FLIPR, a fluorescent image plate reader (Molecular Devices Co.). The IMR32 human neuroblastoma cell line (ATCC, CRL-127), expressing neuronal N-type calcium channels upon differentiation, was used for this assay. IMR32 cells were grown in MEM media (Gibco BRL, 11095-080), supplemented with 10% fetal bovine serum (Gibco BRL, 26140-087), 1% antibiotic-antimycotic (Gibco BRL, 15240-096), 1% L-glutamine (Gibco BRL, 25030-032). Cells, grown to confluency, were differentiated for a period of 7-10 days, or longer, by adding 1 mM dibutyryl cAMP (Sigma D-0627) and 2.5 μM 5-bromo-2-deoxyuridine (Sigma B-9285) to the media. The differentiation media was fed continuously to cells until the cells were used in an experiment.
Differentiated cells were removed from T150 flasks by aspirating media and adding 10 mL harvesting solution consisting of 0.5 mM EDTA in DPBS without calcium or magnesium (Gibco BRL, 14190-144). Cells were then centrifuged at 1500 rpm (≈500 g) for 3 minutes in a Beckman tabletop centrifuge in order to remove the harvesting solution. Cells were resuspended in 10 mL of media containing 1 μM Oregon Green 488 Bapta-1 dye (Molecular Probes, O-6807) and placed in a 37° C. shaking waterbath for 1 hour. The dye-containing media was then diluted with 40 mL buffer (composition in mM: 1.25 CaCl2, 1.2 MgSO4, 11 glucose, 10 HEPES, 3.0 KCl, 137.0 NaCl, pH 7.4 with Tris base) and cells were centrifuged at 1500 rpm (≈500 g) for 3 minutes. Cells were resuspended and washed a second time with 40-50 mL incubation buffer. After centrifugation, cells were resuspended and 200 μL aliquots were plated on black-sided 96-well plates (Costar, 3603) for use in FLIPR. The plates of cells were centrifuged at 750 rpm (≈100 g) for 1.5 minutes to settle the cells to the bottom of the wells. Cells were given one final wash at setting BF1F in a Denley Cellwash (Labsystems, CW018B). The residual buffer volume was adjusted to 50 μL. A 5-minute drug-preincubation period at 35° C. was initiated when 50 μL of drug-containing buffer was pipetted into the cell plate with the 96-well pipettor integrated in the FLIPR apparatus. Nitrendipine, at a concentration of 4 μM, was included in this buffer, in addition to compounds of the present invention at various concentrations. […] Fluorescent counts were monitored at 20 s intervals for 360 s, beginning 60 s prior to the delivery of drug-containing buffer. Following drug addition, 100 μL aliquots of a high K^+, depolarizing stimulus (composition in mM: 1.25 CaCl2, 1.2 MgSO4, 11 glucose, 10 HEPES, 140.0 KCl, pH 7.4 with Tris base) were added to each well, and fluorescence was monitored at 1 s intervals for 120 s, beginning 10 s prior to the stimulus addition. CCD camera exposure time was 0.4 s; laser excitation was at 488 nm with a power of 0.2-0.5W; and a 510 to 560 nm bandpass interference filter preceded the camera.
Data was analyzed as a summation of fluorescent counts above basal during the stimulation period (an approximation of area under the curve), after normalizing the data with a spatial uniformity correction (for variations in laser illumination and cell density) and a negative control correction (zero calcium increase defined as the fluorescence reading in the presence of saturating pharmacologic block of the N-type calcium channel). […] This component was not included in any calculations.
Drug effects were expressed as percent inhibition of fluorescence from an average of 8 K^+-stimulated wells which were pre-treated in the drug incubation period with buffer only. Data was analyzed using FLIPR software and Microsoft Excel spreadsheet software.

T1 sequence (Q00975 whole entry): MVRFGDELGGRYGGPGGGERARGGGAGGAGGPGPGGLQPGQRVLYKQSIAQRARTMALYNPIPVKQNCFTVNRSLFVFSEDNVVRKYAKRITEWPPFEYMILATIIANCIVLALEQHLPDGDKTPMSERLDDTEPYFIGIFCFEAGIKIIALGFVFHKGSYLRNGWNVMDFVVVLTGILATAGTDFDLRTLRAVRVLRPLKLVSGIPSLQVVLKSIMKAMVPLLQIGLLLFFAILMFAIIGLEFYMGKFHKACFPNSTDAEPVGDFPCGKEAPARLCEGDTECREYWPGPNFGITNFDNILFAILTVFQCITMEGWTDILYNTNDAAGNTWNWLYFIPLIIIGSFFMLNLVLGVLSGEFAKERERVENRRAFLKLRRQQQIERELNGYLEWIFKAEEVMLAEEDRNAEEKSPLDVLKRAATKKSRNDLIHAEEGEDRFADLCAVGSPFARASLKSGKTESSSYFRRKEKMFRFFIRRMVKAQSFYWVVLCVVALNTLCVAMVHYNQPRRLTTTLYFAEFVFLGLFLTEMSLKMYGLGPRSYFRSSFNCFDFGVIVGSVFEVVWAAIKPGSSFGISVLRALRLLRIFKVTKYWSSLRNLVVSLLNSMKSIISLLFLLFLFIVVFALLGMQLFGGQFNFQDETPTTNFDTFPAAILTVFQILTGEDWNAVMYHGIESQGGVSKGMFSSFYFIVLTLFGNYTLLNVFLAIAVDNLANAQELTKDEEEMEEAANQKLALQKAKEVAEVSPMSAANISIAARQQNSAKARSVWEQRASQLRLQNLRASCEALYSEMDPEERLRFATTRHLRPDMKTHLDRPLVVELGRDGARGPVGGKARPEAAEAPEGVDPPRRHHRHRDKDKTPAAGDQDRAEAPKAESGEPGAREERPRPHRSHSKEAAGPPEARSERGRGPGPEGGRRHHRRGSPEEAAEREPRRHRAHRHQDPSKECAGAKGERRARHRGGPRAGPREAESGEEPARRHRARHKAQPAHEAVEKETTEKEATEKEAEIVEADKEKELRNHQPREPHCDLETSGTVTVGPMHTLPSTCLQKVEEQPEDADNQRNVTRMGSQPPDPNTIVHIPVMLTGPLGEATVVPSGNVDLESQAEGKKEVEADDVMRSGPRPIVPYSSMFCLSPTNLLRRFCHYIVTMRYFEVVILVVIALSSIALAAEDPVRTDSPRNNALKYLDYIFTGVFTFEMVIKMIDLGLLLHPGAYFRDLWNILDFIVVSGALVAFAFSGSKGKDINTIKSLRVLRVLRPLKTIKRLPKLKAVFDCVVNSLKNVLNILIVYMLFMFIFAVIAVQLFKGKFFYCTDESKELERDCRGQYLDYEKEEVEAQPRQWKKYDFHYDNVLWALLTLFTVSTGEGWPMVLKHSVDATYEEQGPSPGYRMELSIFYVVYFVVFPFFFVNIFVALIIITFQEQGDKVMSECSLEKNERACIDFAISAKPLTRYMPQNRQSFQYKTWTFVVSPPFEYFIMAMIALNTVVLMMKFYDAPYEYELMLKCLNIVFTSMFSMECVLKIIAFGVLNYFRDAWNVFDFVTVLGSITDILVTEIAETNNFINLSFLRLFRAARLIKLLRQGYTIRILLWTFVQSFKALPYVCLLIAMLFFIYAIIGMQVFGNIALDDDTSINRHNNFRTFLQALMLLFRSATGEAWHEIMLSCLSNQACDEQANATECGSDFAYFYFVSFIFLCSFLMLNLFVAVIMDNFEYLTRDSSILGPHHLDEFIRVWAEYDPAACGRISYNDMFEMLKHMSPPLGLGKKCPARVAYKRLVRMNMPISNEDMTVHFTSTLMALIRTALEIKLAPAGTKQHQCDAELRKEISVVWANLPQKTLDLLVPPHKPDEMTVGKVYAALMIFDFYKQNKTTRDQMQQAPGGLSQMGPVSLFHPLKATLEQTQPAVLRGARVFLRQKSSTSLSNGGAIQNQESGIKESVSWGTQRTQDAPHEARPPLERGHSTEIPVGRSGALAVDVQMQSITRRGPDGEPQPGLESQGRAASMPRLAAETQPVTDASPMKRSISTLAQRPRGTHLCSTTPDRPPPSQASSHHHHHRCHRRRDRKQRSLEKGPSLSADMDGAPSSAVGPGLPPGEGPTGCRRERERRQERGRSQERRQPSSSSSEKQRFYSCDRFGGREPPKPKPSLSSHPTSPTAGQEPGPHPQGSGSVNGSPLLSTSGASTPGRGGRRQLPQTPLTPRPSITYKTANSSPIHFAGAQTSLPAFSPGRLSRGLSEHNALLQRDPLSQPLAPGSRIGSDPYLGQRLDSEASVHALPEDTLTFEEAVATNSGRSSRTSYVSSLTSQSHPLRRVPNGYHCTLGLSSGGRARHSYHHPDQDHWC
T1 sequence (P54289 25-956 partner limits assumed): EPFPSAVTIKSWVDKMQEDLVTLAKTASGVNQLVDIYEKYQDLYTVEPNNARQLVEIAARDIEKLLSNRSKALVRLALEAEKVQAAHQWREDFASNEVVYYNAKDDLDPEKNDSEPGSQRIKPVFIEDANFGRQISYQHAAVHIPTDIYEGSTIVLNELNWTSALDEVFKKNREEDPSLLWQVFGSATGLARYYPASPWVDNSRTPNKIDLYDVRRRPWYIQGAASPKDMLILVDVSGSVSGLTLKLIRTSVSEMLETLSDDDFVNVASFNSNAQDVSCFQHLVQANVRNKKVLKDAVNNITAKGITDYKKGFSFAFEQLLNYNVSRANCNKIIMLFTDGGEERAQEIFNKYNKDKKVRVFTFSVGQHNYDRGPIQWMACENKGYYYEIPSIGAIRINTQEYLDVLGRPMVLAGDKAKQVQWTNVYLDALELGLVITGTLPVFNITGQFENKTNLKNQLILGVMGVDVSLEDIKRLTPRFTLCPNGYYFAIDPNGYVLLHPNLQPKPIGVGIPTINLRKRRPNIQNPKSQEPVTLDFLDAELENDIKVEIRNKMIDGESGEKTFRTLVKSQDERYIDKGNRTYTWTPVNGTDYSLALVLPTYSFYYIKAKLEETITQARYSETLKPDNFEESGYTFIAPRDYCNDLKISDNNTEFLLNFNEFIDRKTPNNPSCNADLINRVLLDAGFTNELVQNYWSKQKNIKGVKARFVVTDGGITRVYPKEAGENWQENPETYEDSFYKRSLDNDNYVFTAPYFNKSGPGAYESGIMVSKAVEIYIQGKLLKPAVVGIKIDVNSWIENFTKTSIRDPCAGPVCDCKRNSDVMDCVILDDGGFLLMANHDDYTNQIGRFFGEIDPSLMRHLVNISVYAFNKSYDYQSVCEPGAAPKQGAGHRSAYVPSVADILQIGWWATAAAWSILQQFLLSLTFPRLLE
T1 sequence (P54289 957-1103 partner limits assumed): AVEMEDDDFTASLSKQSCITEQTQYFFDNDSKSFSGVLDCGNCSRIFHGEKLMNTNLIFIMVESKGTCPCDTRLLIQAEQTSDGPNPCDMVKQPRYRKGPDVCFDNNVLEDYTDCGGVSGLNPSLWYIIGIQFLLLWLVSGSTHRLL
T1 sequence (Q02641 whole entry partner): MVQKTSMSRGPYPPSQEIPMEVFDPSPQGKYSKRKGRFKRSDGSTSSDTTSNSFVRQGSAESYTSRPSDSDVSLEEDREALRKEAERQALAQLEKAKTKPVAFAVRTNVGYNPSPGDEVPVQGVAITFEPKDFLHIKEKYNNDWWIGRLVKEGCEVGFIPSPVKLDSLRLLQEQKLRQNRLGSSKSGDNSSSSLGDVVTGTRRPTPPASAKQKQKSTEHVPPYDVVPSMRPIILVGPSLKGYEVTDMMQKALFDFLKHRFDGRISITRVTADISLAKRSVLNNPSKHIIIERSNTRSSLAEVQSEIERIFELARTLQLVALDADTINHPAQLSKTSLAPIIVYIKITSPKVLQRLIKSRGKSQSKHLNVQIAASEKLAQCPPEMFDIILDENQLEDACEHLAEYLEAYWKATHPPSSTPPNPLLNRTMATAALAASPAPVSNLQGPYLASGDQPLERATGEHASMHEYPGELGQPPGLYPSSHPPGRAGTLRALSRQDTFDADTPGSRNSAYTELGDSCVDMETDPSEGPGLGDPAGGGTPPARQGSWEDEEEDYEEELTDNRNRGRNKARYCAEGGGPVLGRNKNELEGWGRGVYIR

Row | Compound | Anti-Writhing % Protection (dose) [1] | IC50 [2]
1 | CN[C@H](CC(C)C)C(=O)NCCCC(c1ccc(F)cc1)c1ccc(F)cc1 [Example 71, (R)-4-Methyl-2-methylamino-pentanoic acid [4,4-bis-(4-fluorophenyl)-butyl]-amide monohydrochloride] | 33.9% @ 10 mg/kg | 2500 nM
2 | CC(C)C[C@H](O)C(=O)NCCCC(c1ccc(F)cc1)c1ccc(F)cc1 [Example 72, (S)-2-Hydroxy-4-methyl-pentanoic acid [4,4-bis-(4-fluoro-phenyl)-butyl]-amide] |  | 1900 nM
3 | CN[C@H](C(=O)NCCCC(c1ccc(F)cc1)c1ccc(F)cc1)C(C)C [Example 73, (S)-3-Methyl-2-methylamino-butanoic acid [4,4-bis-(4-fluorophenyl)-butyl]-amide monohydrochloride] | 90.4% @ 10 mg/kg | 3900 nM
4 | CNCC(=O)NCCCC(c1ccc(F)cc1)c1ccc(F)cc1 [Example 74, N-[4,4-Bis-(4-fluoro-phenyl)-butyl]-2-methylamino-acetamide] |  | 2900 nM
5 | CN[C@@H](CNCCCC(c1ccc(F)cc1)c1ccc(F)cc1)CC(C)C [Example 77, (R)-N^1-[4,4-Bis-(4-fluoro-phenyl)-butyl]-4-N^2-dimethyl-pentane-1,2-diamine] | 43.4% @ 10 mg/kg | 2200 nM
6 | CC(C)CN(C)CC(=O)NCCCC(c1ccc(F)cc1)c1ccc(F)cc1 [Example 78, N-[4,4-Bis-(4-fluoro-phenyl)-butyl]-2-(isobutyl-methyl-amino)-acetamide] | 0% @ 10 mg/kg | 1600 nM
7 | (S)-N^1-[4,4-Bis-(4-fluoro-phenyl)-butyl]-4-N^2-dimethyl-pentane-1,2-diamine [Example 76] | 20.9% @ 10 mg/kg | 2200 nM
